Assay results reported in paper PMC9234963, “Optimizing Shape Complementarity Enables the Discovery of Potent Tricyclic BCL6 Inhibitors” (Journal of Medicinal Chemistry, 2022).
pIC50: −log10 of the molar value. “And” between values parts separate entries of the source, which are not always exact repeats. Equal entries are not always repeated. Where two headings read alike, the source gives them in different places.

Legend:
[1] = tested on: OCI-Ly1; test: Cell proliferation assay (14 days, CellTiter Glo), OCI-Ly1; type: cell-based; conditions: Homo sapiens, BCL6-high line
Method: (§1) After a short centrifugation the plates
(§2) The % inhibition at each test
(§3) 2.3 Cell proliferation assay
(§4) Compounds were initially dispensed into 96- […]
(§5) medium and transferred onto the cells.
(§6) The volume of medium containing 2500 cells in the control well was calculated and this volume of cells was transferred from every well of the assay plates to the corresponding well of the fresh plates containing compound. After 14 days, CellTiter Glo reagent (Promega) was added to the medium in each well of the assay plate at a ratio of 1:2, mixed on a plate shaker, then incubated at room temperature for 10 minutes. Luminescence was measured using an Envision plate reader (Perkin Elmer) and the relative luminescence at each compound concentration, compared to DMSO alone, was calculated. GI50 were determined using a 4-parameter curve fit in Dotmatics (Bishops Stortford, UK).

[2] = target: human BCL6 BTB domain (Homo sapiens, UniProt P41182); test: biochemical; conditions: for BCL6 TR-FRET mean pIC50: mean of replicates
Description: 6. Supplementary tables … S-17
Table S1: summary statistics and individual replicate values … S-17 […]
1. Supplementary experimental: protein production, purification and crystallography 1.1 BCL6 constructs used for assays and crystallography
A first construct of BCL6 BTB domain, which we will refer to as Trx-6His-HRV3C-BCL6, was obtained […]
3C protease cleavage site. For the TR-FRET assay, the Trx-6His-HRV3C-BCL6 protein construct was […]
used without cleaving the tag, as a 6His was needed to bind to the anti-6His-Terbium antibody. […]
For both plasmid constructs described above, transformed BL21-AI E. coli cells were grown in LB […]
carried out at 18 °C for 18 hours. Cells were harvested by centrifugation (5500 g for 30 minutes at 4 […]
oC) and stored at -80 °C.
2. Supplementary experimental: biological assay conditions
IC50 values were determined using […]
a sigmoidal four-parameter logistic fit equation.
Individual replicates shown in supplementary

[3] = tested on: OCI-Ly3; test: Cell proliferation assay (14 days, CellTiter Glo), OCI-Ly3; type: cell-based; conditions: Homo sapiens, BCL6-low line
Method: as §1, §2, §3, §4, §5, §6

[4] = tested on: Karpas 422; test: Cell proliferation assay (14 days, CellTiter Glo), Karpas 422; type: cell-based; conditions: Homo sapiens, KARPAS-422, read-out: Karpas 422 GI50, BCL6-high line
Method: as §1, §2, §3, §4, §5, §6

[5] = HPLC kinetic solubility assay; type: physicochemical; conditions: kinetic solubility by HPLC, 10 mM phosphate-buffered saline pH 7.4, 1% DMSO
Method: 3.2 HPLC solubility assay
DMSO. Following shaking of the suspension on a Bohdan Shaker at 500 rpm for 2 hours at room […]
200 µL of the supernatant was transferred to a 2 mL Agilent vial containing 50 µL of DMSO (Sigma […]
detection using an external standard which was prepared by pipetting 10 µL of the same batch of […]
The detail of the HPLC method is as following: chromatographic separation at 30°C is carried out over a 5 minute gradient elution method from 90:10 to 10:90 water:methanol (both modified with 0.1% formic acid) at a flow rate of 1.5 mL/min. Calibration curve is prepared by injecting 0.5, 2.5, and 5 µL of compound external standard.
62.5 µL of compound solubility sample. […]

[6] = PAMPA permeability; conditions: pH 7.4
[7] = cited from earlier work
[8] = read-out: BCL6 TR-FRET IC50, geometric mean of replicates
[9] = read-out: BCL6 TR-FRET IC50 individual replicates, single replicates, 10 nM BCL6 for early examples, else 1 nM

SMILES	GI50 [1]	IC50 ([2]; BCL6 TR-FRET IC50 individual replicates, single replicates, 10 nM BCL6 for early examples, else 1 nM)	BCL6 TR-FRET mean pIC50 [2]	pIC50 ([2]; read-out: BCL6 TR-FRET IC50, Figure 1)	pIC50 [2, 8]	pIC50 [2, 9]	GI50 [3]	GI50 [4]	Aq. Sol [5]	PAMPA Pe (7.4) [6]	passive permeability [7]
Cn1c(=O)c2c(c3cc(Nc4ccnc(Cl)c4C#N)ccc31)N[C@@H](C1CC1)C(F)(F)CO2 [Compound 1, (S)-2-Chloro-4-((2-cyclopropyl-3,3-difluoro-7-methyl-6-oxo-1,2,3,4,6,7-hexahydro-[1,4]oxazepino[2,3-c]quinolin-10-yl)amino)nicotinonitrile]	170 nM	2.9 nM (3×) and 2.4 nM and 16.2 nM	8.40 and 8.41	8.40 and 8.41	8.41	8.41	3400 nM	190 nM	–	–	–
Cn1c(=O)cc(NC(C)(C)c2ncc(C3CC3)cn2)c2cc(Nc3ccnc(Cl)c3C#N)ccc21 [Compound 3]	–	–	7.58	–	7.59	7.59 and 7.48 and 7.39 and 7.65 and 7.81	–	3320 nM	31 µM	35 × 10^–6 cm s^–1	high
